Paper PMC13316043, “Structural basis of NSD2 degradation via targeted recruitment of SCF-FBXO22” (Nature Communications, 2026)

Assays:
[1] = test system: FBXO22-NSD2 PWWP1 ternary complex; assay: Size-exclusion chromatography to monitor ternary complex formation; format: binding, human
Description: Formation of the SCF^FBXO22-UNC10088-NSD2 PWWP1 and SCF^FBXO22-UNC10415667-NSD2 PWWP1 ternary complexes was performed by incubating SKP1-FBXO22, CUL1-RBX1, NSD2 PWWP1, and UNC10088 or UNC10415667 at a 1:1:1:1 molar ratio for 4 h on ice. The SCF^FBXO22-UNC10088-NSD2 PWWP1-BACH1 BTB ternary complex was formed by incubating SKP1-FBXO22, CUL1-RBX1, NSD2 PWWP1, UNC10088, and BACH1 BTB at a 1:1:1:1:1.5 molar ratio for 1 h on ice. The incubated sample was loaded onto a Superdex 200 Increase SD200 column (Cytiva), equilibrated with 20 mM HEPES pH 8, 200 mM NaCl, 1 mM DTT, for size-exclusion chromatography, and fractions containing all subunits of the SCF^FBXO22-Degrader-NSD2 PWWP1 complex were pooled and concentrated. The SCF^FBXO22-UNC10088-NSD2 PWWP1, SCF^FBXO22-UNC10415667-NSD2 PWWP1, and SCF^FBXO22-UNC10088-NSD2 PWWP1-BACH1 BTB complexes were concentrated to 33 µM, 10.9 µM, and 4.1 µM, respectively, and flash frozen. […] In contrast, only the PWWP1 and BTB domains of NSD2 and BACH1, respectively, were used.
FBXO22 WT and variants were incubated on ice with NSD2 PWWP1 and either UNC10088 or UNC10415667 at 5 µM. After 1 h, the samples were centrifuged at 16,060 x g for 10 min at 4 °C. Each sample was examined for C326- and compound-dependent complex formation by comparing the SEC chromatograms and Coomassie-stained SDS-PAGE gels. […] These experiments were performed using a Superdex 200 Increase SD200 column (Cytiva) and 20 mM HEPES pH 8, 200 mM NaCl, 1 mM DTT.

U2OS cells = assay: CellTiter-Glo cell viability assay; format: cell-based, human; conditions: 1 µM, 6 h
Description: The cell viability of NSD2 HiBiT U2OS P112 and parental U2OS cell lines treated with NSD2 degrader was determined by the CellTiter-Glo 2.0 Cell Viability Assay (Promega, G9242). 384-well plates (Corning) with cells and the reagent were equilibrated to the room temperature before detection. The reagent was added to the assay plate according to the product instruction and allowed to incubate on an orbital shaker for 3 min at room temperature before subjecting the plate to the GloMax luminometer (Promega). The data and graphs were then analyzed and generated using GraphPad Prism (v 10.4.1)

Row | Structure (SMILES) | ternary complex formation between FBXO22 and NSD2 PWWP1 by SEC [1] | cell viability (U2OS cells)
1 | O=C1COc2cc(C(=O)N(Cc3ccc(C(=O)Nc4ccc5c(c4)CCN(C(=O)CCCCC(O)S(=O)(=O)O)C5)cc3)C3CC3)ccc2N1 (stereo not drawn) [UNC10088] | co-migrated together | 
2 | O=Cc1ccc(C(=O)N2CCc3cc(NC(=O)c4ccc(CN(C(=O)c5ccc6c(c5)OCC(=O)N6)C5CC5)cc4)ccc3C2)cc1 [UNC10415667] | stable complex | did not impact cell viability
